Measured values published in PubChem BioAssay AID248 (DTP/NCI, 2004).
Where “and” joins values, the source holds several entries; their conditions need not be identical. Equal entries are not always repeated. Inconclusive results and toxic doses are left out. No stated cut-off is given here; in the data, active means T/C of 150% or more; inactive means T/C below 125%.

System: L1210 leukemia ip in BDF1 mice, survival T/C
Assay: NCI In Vivo Anticancer Drug Screen. Data for tumor model L1210 Leukemia (intraperitoneal) in B6D2F1 (BDF1) mice
Conditions: endpoint: mean survival time, higher = longer survival
Outline: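 Each compound was tested against a transplantable tumor grown in mice. The endpoint was survival, with treated animals benchmarked against vehicle controls as a simple ratio.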

[1] = dose: 100.0 mg/kg/injection, schedule: Q01DX001 (ip), vehicle: carboxymethylcellulose (CMC)
[2] = dose: 200.0 mg/kg/injection, schedule: Q01DX001 (ip), vehicle: carboxymethylcellulose (CMC)
[3] = dose: 400.0 mg/kg/injection, schedule: Q01DX001 (ip), vehicle: carboxymethylcellulose (CMC)
[4] = dose: 100.0 mg/kg/injection, schedule: Q04DX002 (ip), vehicle: Klucel (hydroxypropylcellulose) (HPC)
[5] = dose: 200.0 mg/kg/injection, schedule: Q04DX002 (ip), vehicle: Klucel (hydroxypropylcellulose) (HPC)
[6] = dose: 100.0 mg/kg/injection, schedule: Q04DX003 (ip), vehicle: gum acacia
[7] = dose: 200.0 mg/kg/injection, schedule: Q04DX003 (ip), vehicle: gum acacia
[8] = dose: 400.0 mg/kg/injection, schedule: Q04DX003 (ip), vehicle: gum acacia
[9] = dose: 100.0 mg/kg/injection, schedule: Q01DX009 (ip), vehicle: saline
[10] = dose: 200.0 mg/kg/injection, schedule: Q01DX009 (ip), vehicle: saline
[11] = dose: 400.0 mg/kg/injection, schedule: Q01DX009 (ip), vehicle: saline
[12] = dose: 100.0 mg/kg/injection, schedule: Q01DX009 (ip), vehicle: Klucel (hydroxypropylcellulose) (HPC)
[13] = dose: 200.0 mg/kg/injection, schedule: Q01DX009 (ip), vehicle: Klucel (hydroxypropylcellulose) (HPC)
[14] = dose: 400.0 mg/kg/injection, schedule: Q01DX009 (ip), vehicle: Klucel (hydroxypropylcellulose) (HPC)
[15] = dose: 100.0 mg/kg/injection, schedule: Q01DX001 (ip), vehicle: Klucel (hydroxypropylcellulose) (HPC)
[16] = dose: 100.0 mg/kg/injection, schedule: Q01DX009 (ip), vehicle: saline with Tween-80
[17] = dose: 200.0 mg/kg/injection, schedule: Q01DX009 (ip), vehicle: saline with Tween-80
[18] = dose: 400.0 mg/kg/injection, schedule: Q01DX009 (ip), vehicle: saline with Tween-80
[19] = dose: 100.0 mg/kg/injection, schedule: Q01DX001 (ip), vehicle: saline
[20] = dose: 200.0 mg/kg/injection, schedule: Q01DX001 (ip), vehicle: saline
[21] = dose: 50.0 mg/kg/injection, schedule: Q01DX009 (ip), vehicle: Klucel (hydroxypropylcellulose) (HPC)
[22] = dose: 100.0 mg/kg/injection, schedule: Q04DX003 (ip), vehicle: Klucel (hydroxypropylcellulose) (HPC)
[23] = dose: 200.0 mg/kg/injection, schedule: Q04DX003 (ip), vehicle: Klucel (hydroxypropylcellulose) (HPC)
[24] = dose: 400.0 mg/kg/injection, schedule: Q04DX003 (ip), vehicle: Klucel (hydroxypropylcellulose) (HPC)
[25] = dose: 400.0 mg/kg/injection, schedule: Q01DX001 (ip), vehicle: saline

Measured: T/C

O=C1C=CC(=O)N1c1ccnc(N2C(=O)C=CC2=O)c1
inactive: [1] 86 % of control | [2] 97 % of control | [3] 105 % of control

CCOC(=O)CNc1ccc(C)c(C)c1
inactive: [4] 95 % of control | [5] 109 % of control | dose: 400.0 mg/kg/injection, schedule: Q04DX002 (ip), vehicle: Klucel (hydroxypropylcellulose) (HPC) 104 % of control

O=C(O)Cc1c(O)ccc2ccccc12
inactive: dose: 100.0 mg/kg/injection, schedule: Q01DX009 (ip), vehicle: gum acacia 92 % of control | [6] 97 % of control | dose: 200.0 mg/kg/injection, schedule: Q01DX009 (ip), vehicle: gum acacia 90 % of control | [7] 92 % of control | dose: 400.0 mg/kg/injection, schedule: Q01DX009 (ip), vehicle: gum acacia 98 % of control | [8] 90 % of control

Cc1coc(NS(=O)(=O)c2ccc(N=Nc3cc(N=Nc4ccccc4)c(N)nc3N)cc2)c1C
inactive: [1] 94 % of control | [2] 105 % of control

N#CCCOC(=O)CCC(=O)OCCC#N
inactive: dose: 100.0 mg/kg/injection, schedule: Q01DX001 (ip), vehicle: other 104 % of control | dose: 200.0 mg/kg/injection, schedule: Q01DX001 (ip), vehicle: other 100 % of control | dose: 400.0 mg/kg/injection, schedule: Q01DX001 (ip), vehicle: other 102 % of control

CC(C)OCCCO
inactive: [9] 87 % of control | [10] 92 % of control | [11] 97 % of control

CN(C(=O)/C=C/c1ccc([N+](=O)[O-])cc1)c1ccc(S(=O)(=O)F)cc1
inactive: [12] 91 % of control | [13] 94 % of control | [14] 97 % of control

O=C(O)CC(NC(=O)CP(=O)(O)O)C(=O)O (stereo not given)
inactive: dose: 0.39 mg/kg/injection, schedule: Q01DX009 (ip), vehicle: saline 104 % of control | dose: 0.78 mg/kg/injection, schedule: Q01DX009 (ip), vehicle: saline 96 % of control | dose: 1.56 mg/kg/injection, schedule: Q01DX009 (ip), vehicle: saline 100 % of control | dose: 3.12 mg/kg/injection, schedule: Q01DX009 (ip), vehicle: saline 100 % of control | dose: 6.25 mg/kg/injection, schedule: Q01DX009 (ip), vehicle: saline 100 % of control | dose: 12.5 mg/kg/injection, schedule: Q01DX009 (ip), vehicle: saline 98 % of control | dose: 25.0 mg/kg/injection, schedule: Q01DX009 (ip), vehicle: saline 93 % of control and 94 % of control | dose: 50.0 mg/kg/injection, schedule: Q01DX009 (ip), vehicle: saline 96 % of control and 98 % of control | [9] 104 % of control and 122 % of control | [10] 117 % of control and 122 % of control | dose: 225.0 mg/kg/injection, schedule: Q01DX009 (ip), vehicle: saline 113 % of control | dose: 240.0 mg/kg/injection, schedule: Q04DX003 (ip), vehicle: saline 113 % of control | dose: 250.0 mg/kg/injection, schedule: Q01DX009 (ip), vehicle: saline 109 % of control | dose: 275.0 mg/kg/injection, schedule: Q01DX009 (ip), vehicle: saline 109 % of control | dose: 343.0 mg/kg/injection, schedule: Q04DX003 (ip), vehicle: saline 117 % of control | [11] 89 % of control | dose: 490.0 mg/kg/injection, schedule: Q04DX003 (ip), vehicle: saline 113 % of control | dose: 700.0 mg/kg/injection, schedule: Q04DX003 (ip), vehicle: saline 119 % of control

O=[N+]([O-])c1ccccc1N=Nc1c(O)[nH]c2ccc(F)cc12
inactive: dose: 75.0 mg/kg/injection, schedule: Q01DX001 (ip), vehicle: acetone 96 % of control | dose: 150.0 mg/kg/injection, schedule: Q01DX001 (ip), vehicle: acetone 96 % of control | dose: 300.0 mg/kg/injection, schedule: Q01DX001 (ip), vehicle: acetone 103 % of control

Cc1nc(N)[nH]c(=O)c1CCCNC(=O)c1cccc([N+](=O)[O-])c1
inactive: dose: 50.0 mg/kg/injection, schedule: Q01DX001 (ip), vehicle: Klucel (hydroxypropylcellulose) (HPC) 108 % of control | [15] 114 % of control

Cc1cc(Cl)c(Cl)cc1NC(=O)c1ccc(Cl)c(Cl)c1
inactive: [16] 94 % of control and 101 % of control | [17] 101 % of control | [18] 102 % of control and 104 % of control

CC(=O)OCCC/C(=C/c1cc2ccccc2c2ccccc12)[N+](=O)[O-]
inactive: [1] 95 % of control | [2] 95 % of control | [3] 97 % of control

S=c1nccc[nH]1
inactive: dose: 25.0 mg/kg/injection, schedule: Q01DX009 (ip), vehicle: saline with Tween-80 103 % of control | dose: 25.0 mg/kg/injection, schedule: Q04DX002 (ip), vehicle: saline with Tween-80 93 % of control | dose: 50.0 mg/kg/injection, schedule: Q01DX009 (ip), vehicle: saline with Tween-80 105 % of control | dose: 50.0 mg/kg/injection, schedule: Q04DX002 (ip), vehicle: saline with Tween-80 107 % of control | dose: 100.0 mg/kg/injection, schedule: Q04DX002 (ip), vehicle: saline with Tween-80 96 % of control

c1nc(NCC2CC2)c2[nH]cnc2n1
inactive: [19] 97 % of control | [20] 97 % of control

CCc1ccccc1NC(=O)c1cccc(C(=O)Nc2ccccc2CC)c1
inactive: [21] 98 % of control | [12] 94 % of control | [22] 91 % of control | [13] 110 % of control | [23] 88 % of control

CN(C)CCc1ccccc1OC1CCCC1
inactive: dose: 75.0 mg/kg/injection, schedule: Q01DX001 (ip), vehicle: other 101 % of control | dose: 150.0 mg/kg/injection, schedule: Q01DX001 (ip), vehicle: other 102 % of control | dose: 300.0 mg/kg/injection, schedule: Q01DX001 (ip), vehicle: other 101 % of control

COC(=O)/C=C/c1ccc(OC)cc1
inactive: [21] 103 % of control | [12] 102 % of control | [22] 96 % of control | [13] 103 % of control | [23] 100 % of control | [24] 88 % of control

OC(Cc1cccc(=S)[nH]1)(c1ccccc1)c1ccccc1
inactive: [19] 98 % of control | [20] 93 % of control | [25] 91 % of control

O=C(O)c1ccccc1C(=O)c1ccccc1
inactive: [15] 97 % of control | dose: 200.0 mg/kg/injection, schedule: Q01DX001 (ip), vehicle: Klucel (hydroxypropylcellulose) (HPC) 97 % of control | dose: 400.0 mg/kg/injection, schedule: Q01DX001 (ip), vehicle: Klucel (hydroxypropylcellulose) (HPC) 95 % of control

CC(c1ccccc1)[P+](c1ccccc1)(c1ccccc1)c1ccccc1 (stereo not given)
inactive: dose: 12.5 mg/kg/injection, schedule: Q04DX002 (ip), vehicle: saline 106 % of control | dose: 25.0 mg/kg/injection, schedule: Q04DX002 (ip), vehicle: saline 111 % of control | dose: 50.0 mg/kg/injection, schedule: Q04DX002 (ip), vehicle: saline 97 % of control

O=C(Nc1ncccn1)C(F)(F)F
inactive: dose: 50.0 mg/kg/injection, schedule: Q01DX001 (ip), vehicle: saline 95 % of control | [19] 92 % of control | [20] 95 % of control | [25] 90 % of control

CCCCCC(Oc1ccc(Cl)cc1C)C(=O)O (stereo not given)
inactive: [4] 107 % of control | [5] 107 % of control

Cc1ccc(C)c(NC(=O)N2CCCCC2C)c1 (stereo not given)
inactive: [12] 101 % of control | [22] 98 % of control | [13] 101 % of control | [23] 102 % of control | [14] 97 % of control | [24] 100 % of control

O=C(CC(Br)C(=O)c1ccccc1)c1ccccc1 (stereo not given)
inactive: [16] 97 % of control | [17] 97 % of control | [18] 94 % of control

c1ccc(NC2CCCCC2)nc1
inactive: [6] 95 % of control | [7] 98 % of control | [8] 96 % of control
